According to patent US11572475B2, “Carbocyanines for G-quadruplex DNA stabilization and telomerase inhibition” (GEORGIA STATE UNIVERSITY RESEARCH FOUNDATION, INC., priority 2011, dated 2023):

Tests used:
[1] = test system: Human Telomere (HT) quadruplex DNA; test: Thermal melting UV-Vis absorbance, quadruplex DNA; assay type: binding; conditions: for Change in Thermal Melting Points, Human Telomere (HT), 1:1: ratio 1:1 (R); for Change in Thermal Melting Points, Human Telomere (HT), 2:1: ratio 2:1 (R); for Change in Thermal Melting Points, Human Telomere (HT), 4:1: ratio 4:1 (R); for Change in Thermal Melting Points, Human Telomere (HT), 6:1: ratio 6:1 (R); for Selectivity for quadruplex over duplex DNA by thermal melting: quadruplex vs duplex
Description: (§1) Three DNA sequences were used: Human Telomere (HTelo), c-myc, and Duplex (Integrated DNA Technologies, San Diego, Calif.). The sequences are shown below:
The concentration of each DNA sample mixed with MilliQ water was determined by UV-Vis at 260 nm using their extinction coefficients. Quadruplexes from Human Telomere (Tel22) and c-myc were prepared by heating the corresponding oligonucleotides at 90° C. for 5 minutes in a 10 mM Tris/50 mM KCl buffer at pH 7.5 and then cooling to room temperature (to favor the intramolecular folding).
(§2) The buffer used was 10 mM Tris base (Fischer Scientific, Fairlawn, N.J.), 50 mM Potassium Chloride (Fischer Scientific, Fairlawn, N.J.), with the pH adjusted to 7.5 with Hydrochloric Acid (Fischer Scientific, Fairlawn, N.J.).
(§3) DNA folding and unfolding (melting) can be measured using absorbance at a constant wavelength of 260 nm for duplex DNA and 295 nm for quadruplex DNA while the temperature is increased, for example from 25° C. to 95° C. At these wavelengths, the resulting curves decrease in absorbance for quadruplex and increase for duplex DNA. Buffer solution and presence of DNA-binding compounds alter the Tm melting temperature, or midpoint between fully folded and unfolded. An increase in melting temperature in the presence of DNA-binding compounds indicates a stabilizing effect of the compound on the DNA structure.
(§4) The selectivity of a given cyanine for quadruplex DNA can be evaluated using thermal melting. The number in parentheses next to the compound number corresponds to the compound number in Schemes 1 and 2.
(§5) Thermal melting studies were also performed on compounds T4 and T5 (Scheme 2) and ZK-14 and SP-2-36.

HeLa cells = test: Trypan blue exclusion assay for cell viability, HeLa; assay type: cell-based; conditions: for Hela cells killed: after 24 h
Description: (§6) To evaluate the cytotoxic properties of the cyanines described herein, trypan blue exclusion assay for cell viability was performed on 10 compounds at two different concentrations (5 μM and 20 μM). To test the cancer selectivity of the dyes, the results were compared in a cancer cell line, HeLa and a non-cancerous cell line, HDF. The loss of membrane integrity in dead and dying cells allows preferential uptake of labels like trypan blue. At the end of the incubation times with the dyes, HeLa or HDF cells were pelleted and washed with PBS. Well-suspended cells were mixed with equal volume of 0.4% trypan blue in 1×PBS, pH 7.4, followed by incubation at room temperature for 5 min. Cells were examined under the microscope and blue-stained cells were considered non-viable.

[2] = Trypan blue exclusion assay for cell viability, HDF; assay type: cell-based; conditions: human, HDF cells (non-cancerous cell line); at the lower dose (5 μM); read-out: cell viability of normal cells (HDF)
Description: as §6

Duplex DNA = test: Thermal melting UV-Vis absorbance, duplex DNA; assay type: binding; conditions: for Change in Thermal Melting Points, Duplex, 1:1: ratio 1:1 (R); for Change in Thermal Melting Points, Duplex, 2:1: ratio 2:1 (R); for Change in Thermal Melting Points, Duplex, 4:1: ratio 4:1 (R); for Change in Thermal Melting Points, Duplex, 6:1: ratio 6:1 (R)
Description: as §1, §2, §3, §4, §5

[3] = test system: Human Telomere (HT) quadruplex DNA; test: Fluorescence titration with human telomere quadruplex; assay type: binding; conditions: fluorescence intensity of bound ligand divided by that of free ligand
Text: (§7) Atoms absorb energy and can emit it as heat (vibrational relaxation), fast light emission (fluorescence), or slow light emission (phosphorescence). Most of the cyanines described herein fluoresce in response to near-infrared wavelengths of light absorption. As the cyanines bind to DNA, π-π stacking and hydrogen bonding is altered leading to a change in fluorescence emission. This change can be measured in direct correlation to DNA binding. In some cases an approximate binding constant can be determined from measuring fluorescence enhancement as DNA is titrated into a solution of fluorescent compound. Fluorescent enhancement, or the maximum emission divided by the minimum emission of the titration (compound saturated with DNA divided by free compound) at a fixed wavelength is useful to compare DNA affinity between a family of compounds.
(§8) A UV-Vis absorbance scan is first conducted to acquire the excitation wavelength. A 5 μM solution of compound in 1 mL, of Tris/K+ buffer is scanned from 800 nm to 200 nm at a rate of 60 nm/min with a 5 nm slit width. All DNAs are diluted in Tris/K+ buffer. The human telomere and c-Myc DNA are annealed into a quadruplex motif by heating at 95° C. in the presence of potassium ions in a hot water bath for approximately five minutes, then allowing the solution to slowly come to room temperature. In a fluorescence cell, an emission scan of 1 μM of compound in 1 mL of Tris Buffer is taken (Varian Cary Eclipse, Walnut Creek, Calif.) with appropriate parameters based on the excitation wavelength, an excitation slit width of 5 nm, and an emission slit width of 5 nm. Then 0.05 μM of DNA is titrated into the solution and scanned under the same conditions after each addition. The solution is titrated to saturation, at which the change in fluorescence intensity is nearly zero.
(§9) Due to the highly stabilized parallel quadruplex structure of c-Myc, thermal melting could not be considered for this sequence. Thus, fluorescence can be used to measure binding affinity towards the two quadruplex structures. […] Fluorescence enhancement, or the fluorescence intensity of the bound ligand divided by that of the free ligand, was considered in evaluating binding.

c-Myc quadruplex DNA = test: Fluorescence titration with c-Myc quadruplex; assay type: binding; conditions: fluorescence intensity of bound ligand divided by that of free ligand
Text: as §7, §8, §9

c-myc = test: Isothermal calorimetry, c-myc; assay type: binding; conditions: ITC, 25° C.
Description: (§10) DNA binding is dependent on enthalpy and entropy, components of the Gibbs free energy. Isothermal calorimetry measures the heat absorbed (endothermic binding) or released (exothermic binding) in binding at the μcalorie level. By examining the thermodynamics of different compounds, compounds can be analyzed to determine what factors favor quadruplex over duplex DNA binding. Enthalpy and binding constants are determined from measuring the heat change when compound is injected into a DNA solution, and the equations ΔG=ΔH−TΔS ΔG=−RT ln K are used to calculate entropy and Gibbs free energy.
(§11) Solutions of compound (0.2 mM) were injected 30 times into solutions of DNA (0.02 mM) on a VPC-ITC. All solutions were degasses at 25° C. for 15 minutes. TRIS/K^+ buffer was used in the reference cell. The injections were monitored at 25° C. with a reference power of 1 μcal/sec, an initial delay of 300 sec, and a stirring speed of 290. The first injection was 2 μL for 4 sec, with a spacing of 300 sec, and a filter period of 1 sec. The remaining 29 injections were 10 μL volume for a duration of 20 sec, with a spacing of 300 sec, and a filter period of 1 sec. The data was analyzed by VPViewer 2000 software.
(§12) Isothermal calorimetry (ITC) experiments were performed to test the SPR and fluorescence preference in binding c-myc over hTelo. […]

hTelo = test: Isothermal calorimetry, hTelo; assay type: binding, human; conditions: 25° C.
Description: as §10, §11, §12

A2T2 = test: Isothermal calorimetry, A2T2; assay type: binding; conditions: 25° C.
Description: as §10, §11, §12

HDF cells = test: Trypan blue exclusion assay for cell viability, HDF; assay type: cell-based; conditions: at both concentrations; text also says lower concentrations (5-10 μM)
Description: as §6

| Compound | Change in Thermal Melting Points, Human Telomere (HT), 1:1 [1] | Change in Thermal Melting Points, Human Telomere (HT), 2:1 [1] | Change in Thermal Melting Points, Human Telomere (HT), 4:1 [1] | Change in Thermal Melting Points, Human Telomere (HT), 6:1 [1] | Hela cells killed (HeLa cells; 5 μM) | Hela cells killed (HeLa cells; 20 μM) | viability at 5 µM [2] | Selectivity for quadruplex over duplex DNA by thermal melting [1] | Change in Thermal Melting Points, Duplex, 1:1 (Duplex DNA) | Change in Thermal Melting Points, Duplex, 2:1 (Duplex DNA) | Change in Thermal Melting Points, Duplex, 4:1 (Duplex DNA) | Change in Thermal Melting Points, Duplex, 6:1 (Duplex DNA) | Fluorescence Enhancement, HT [3] | Fluorescence Enhancement, c-Myc (c-Myc quadruplex DNA) | K (M^−1), c-myc (c-myc) | ITC binding to hTelo (hTelo) | ITC binding to A2T2 (A2T2) | Cytotoxicity to cancer cells (HeLa cells; HeLa, both concentrations studied (5 μM and 20 μM)) | K (M^−1), hTelo (hTelo; ITC) | cell death, HDFs (HDF cells) |
| --- | --- | --- | --- | --- | --- | --- | --- | --- | --- | --- | --- | --- | --- | --- | --- | --- | --- | --- | --- | --- |
| CC1(C)C(/C=C/C(Br)=C/C=C2/N(CCC[N+](C)(C)C)c3ccc(I)cc3C2(C)C)=[N+](CCC[N+](C)(C)C)c2ccc(I)cc21 [A-161 (50)] | 4.1 | 9.2 | 16.2 | 21.7 | > 70% | > 70% | 100% |  |  |  |  |  |  |  |  |  |  |  |  |  |
| CC1(C)C(/C=C/C=C2/N(CCC[N+](C)(C)C)c3ccc(Br)cc3C2(C)C)=[N+](CCC[N+](C)(C)C)c2ccc(Br)cc21 [MH5 (28)] | 1 | 5.2 | 14.2 | 23.7 |  |  |  | selectively bind to quadruplex DNA with little or no binding to duplex DNA | −0.1 | −1.0 | −1.0 | −0.1 | 1.6 | 4.65 | 1.19e+06 M⁻¹ | Weak binding- unable to fit | No binding | highly cytotoxic to cancer cells |  |  |
| CC1(C)C(/C=C/C(Br)=C/C=C2\N(CCC[N+](C)(C)C)c3ccccc3C2(C)C)=[N+](CCC[N+](C)(C)C)c2ccccc21 [A-C8 (43)] | 2.0 | 4.6 | 11.6 | 15.6 |  |  |  | selectively bind to quadruplex DNA with little or no binding to duplex DNA | 0.0 | −1.1 | 0.9 | −0.2 | 1.66 | 3.46 | 802000 M⁻¹ |  | No binding |  | 55700 M⁻¹ | ~35% |
